The record followed here is patent US20060040122A1, “Antimicrobial drywall” (Verichem, Inc., priority 2004, published 2006).

Structures can show the parent of a compound that is named as a salt.

The subject of one assay is Aspergillus niger. As to the kind of experiment: Minimum Inhibitory Concentration synergy test on fungi (Kull et al procedure). Type of assay: cell-based. From the text:
(§1) The procedure followed is adapted from and follows very closely, the procedure described in the Kull et al article. The concentrations listed in Table 1 are the Minimum Inhibitory Concentrations.
(§2) In Table 3, synergism test results are summarized for a 1:26 weight ratio of OPP:DGH against three molds, using the same test system as for Table 1
(§3) Synergism has also been shown for combinations of DGH and NaMetam (sodium methyldithiocarbamate). The Table 5 results were obtained in a manner similar to those of Table 1: […]

The test system of a further assay is Mixed inoculum. Described as above. The assay is classed as cell-based.
Description: as §1, §2, §3

In a further assay the test system is Penicillium pinophillum. Described as above. The assay is classed as cell-based.
Description: as §1, §2, §3

The subject of assay [1] is Wild strain - Alternaria sp. The description is as above. Type of assay: cell-based.
Description: as §1, §2, §3

Assay [2] concerns artificial bacterial consortium containing approximately equal numbers of six bacterial strains. The experiment in a line: Synergism dose protocol: growth inhibition of a bacterial consortium in synthetic white water (O.D. 650 nm). The note with it: end point 50% inhibition of bacterial growth; pH 5.5; SI less than 1 = synergism. Type of assay: cell-based. As for the experimental part:
O-phenylphenol was tested in combination with DGH. The synergism of the blends was determined using a dose protocol. The combinations were evaluated in synthetic white water with pH value of 5.5. The materials were tested against an artificial bacterial consortium containing approximately equal numbers of six bacterial strains. Although the test strains are representative of organisms present in paper mill systems, the effect is not limited to these bacteria. Two of the strains were Kiebsiella pneumoia (ATCC 13883) and Pseudomonas aeruginosa (ATCC 15442). […] Optical density (O>D>) readings at 650 nm were taken initially (t0) and after 4 hours (t4) of incubation. […]
The inhibition values can be plotted versus dosage for each active and the particular blend. […] In the examples (tables) below, the 50 values are expressed as parts per million (ppm) of active material.
The synergism index (SI) was calculated by the equation below, which was proposed by F. C. […]
QA=quantity of compound A in mixture, producing the end point
Qa=quantity of compound A1 acting alone, producing the end point
QB=quantity of compound B in mixture, producing the end point
Qb=quantity of compound B1 acting alone, producing the end point If SI is less than 1, synergism exists; if SI is greater than 1, antagonism exists; if SI is equal to 1, an additive effect exists.

For assay [3], the system named is Aureobasidium pullulans ATCC 9348, Aspergillus niger ATCC 6275, Penicillium sp. ATCC 9849. The experiment in a line: ASTM Test Method D-3273 00, resistance to surface mold fungi and mildew, in adhesives. Particulars: similar tests, same organisms; in Titebond Solvent Free Fast Grab FRP Adhesive and Titebond Solvent Free Subfloor Adhesive. From the text:
In addition to experiments as described above, tests were made to compare combinations of DGH (dodecyl guanidine hydrochloride) and OPP against microorganisms known to generate what is commonly known as mildew, when used in caulking and/or adhesive materials used in bathtubs, showers and the like. ASTM (American Society for Testing Materials) Test Method D-3273 00, dealing with resistance to surface mold fungi and mildew was used. Generally, this is an accelerated test calling for a test chamber held at a relative humidity of 95 to 98% and a temperature of 32.5±1° C. (90±2° F.).
Five commercial adhesive compositions known to be susceptible to mildew growth were tested using the microorgainsms Aureobasidium pullulans ATCC 9348, Aspergillus niger ATCC 6275, Penicillium sp. ATCC 9849.
Following this test, a composition comprising 10 g of OPP and 30 g of dodecyl guanidine hydrochloride (DGH) was incorporated into samples of Titebond™ Professional Tub Surround Adhesive at concentrations of 150, 250, 500, 750, and 1000 ppm and the adhesive was tested in the same manner as in Table 2. At 28 days, all of the DGH/OPP compositions were rated at 10.

Where [4] appears, read: Table 5, Penicillum pinophillum.
[5] abbreviates: Table 5, Wild Strain - Alternaria sp.
Setting [6] is: Table 1, Minimum Inhibitory Concentration.
The mark [7] stands for this setting: Table 1, Minimum Inhibitory Concentration, Mixed inoculum.
The mark [8] stands for this setting: Table 1, Minimum Inhibitory Concentration, Penicillium pinophillum.
Setting [9] is: Table 3, Penicillum pinophillum.
[10] abbreviates: Table 1, Minimum Inhibitory Concentration, Wild strain - Alternaria sp.
[11] abbreviates: Table 3, Wild strain - Atlernaria sp.

For the compound `CNC(=S)[S-].[Na+]` [NaMetam, sodium methyldithiocarbamate], the “Conc of NaMetam alone” value was determined as 31.2 with Aspergillus niger (Table 5); 250 in the assay with Mixed inoculum (Table 5, Mixed Inoculum); 31.2 in the assay with Penicillium pinophillum (setting [4]); 125 in assay [1] (setting [5]).

Turning to `[Na+].[O-]c1ccccc1-c1ccccc1` [NaOPP, sodium orthophenylphenate], the “Synergy Index” value in assay [2] was 1.00.

As to dodecyl guanidine acetate [DGA], the mildew inhibition entry in assay [3] is given as “effective mildew inhibitors”.

Regarding `CCCCCCCCCCCCNC(=N)N` [DGH, Dodecyl guanidine hydrochloride], the “Synergy Index” value in assay [2] amounted to 1.00. Also, the “Concentration of DGH alone” value with Aspergillus niger (setting [6]) is 62.5; in the assay with Mixed inoculum (setting [7]), 125; in the assay with Penicillium pinophillum (setting [8]) it was 62.5; in assay [1] (setting [10]) it was 125. For the same compound, the “DGH conc (ppm) alone” value was 62.5 ppm with Aspergillus niger (Table 3); 125 ppm in the assay on Mixed inoculum (Table 3, Mixed inoculum); 62.5 ppm in the assay on Penicillium pinophillum (setting [9]); 125 ppm in assay [1] (setting [11]). The “Conc. Of DGH alone” value in the assay with Aspergillus niger (Table 5) amounted to 62.5; in the assay with Mixed inoculum (Table 5, Mixed Inoculum) it was 62.5; in the assay with Penicillium pinophillum (setting [4]) it was 62.5; in assay [1] (setting [5]) it was 62.5.

For `Oc1ccccc1-c1ccccc1` [OPP, o-phenylphenol], the “Concentration of OPP alone” value (with Aspergillus niger (setting [6]); in the assay with Mixed inoculum (setting [7]); in the assay on Penicillium pinophillum (setting [8]); in assay [1] (setting [10])) was 15.6 throughout. In addition, the “OPP conc (ppm) alone” value in the assay with Aspergillus niger (Table 3) worked out at 15.6 ppm; with Mixed inoculum (Table 3, Mixed inoculum) it was 15.6 ppm; in the assay with Penicillium pinophillum (setting [9]), 15.6 ppm; in assay [1] (setting [11]), 15.6 ppm.
